Common to all, as to assay type: cell-based
The test system of assay [1] is Enterococcus faecium ISP133/04. Nature of the assay: Disc growth inhibition halo test (Example 2). To be noted: commercial disc 30 μg Km.
Assay [2] concerns Enterobacter aerogenes ATCC13048. Nature of the assay: Disc growth inhibition halo test (Example 2). To be noted: commercial disc 30 μg Km.
Assay [3] relates to Escherichia coli ATCC25922. Nature of the assay: Disc growth inhibition halo test (Example 2). To be noted: commercial disc 30 μg Km.
In assay [4] the test system is Klebsiella pneumoniae ATCC4352. Nature of the assay: Thick cloth growth inhibition test (Example 6). The settings on record: commercial disc 30 μg Km; in mm. The procedure: (§1) This example determined qualitatively the antibacterial effect of the copper solution proposed, embedded in a matrix of thick fabric which was prepared following the procedure of the present invention. Pieces of cloth of about 2×2 cm were prepared and embedded with the product and then were deposited on a background lawn of 12 different bacteria strains.
(§2) In order to do this, it was prepared a bacterial culture of 16 hours, with the strain of interest, it was performed a 1/30 dilution of the culture with fresh medium and incubated under stirring at 37° C. until reaching the exponential growth phase (D0600 nm 0.4-0.5). It was taken an aliquot of 100 μL of the culture in exponential phase, and deposited in 4 mL of Mueller-Hinton soft agar at 0.8% (previously melted and stabilized at 50° C.). The mixture was deposited on a Petri dish with 20 mL of Mueller-Hinton agar base. Once the agar was gelled, each of the discs with different amounts of the test compound were deposited on the background lawn, and incubated at 37° C. during 48 hours.
(§3) Experiments were performed in triplicate in independently, using as negative control discs with the solvent DMSO alone and cloth without the product of study. As positive control were used commercial discs used with 30 μg of antibiotic Kanamycin (Km).

For assay [5], the system named is Enterobacter aerogenes ATCC13048. Nature of the assay: Thick cloth growth inhibition test (Example 6). The settings on record: commercial disc 30 μg Km; in mm. The procedure: as §1, §2, §3
Assay [6] relates to Enterococcus faecium ISP133/04. The assay is described as follows: Thick cloth growth inhibition test (Example 6). To be noted: commercial disc 30 μg Km; in mm. The procedure:
as §1, §2, §3

Assay [7] has as its system Pseudomonas aeruginosa PAOI. Nature of the assay: Thick cloth growth inhibition test (Example 6). To be noted: commercial disc 30 μg Km; in mm. The procedure: as §1, §2, §3
Assay [8] relates to Staphylococcus aureus ATCC25923. Nature of the assay: Thick cloth growth inhibition test (Example 6). The settings on record: commercial disc 30 μg Km; in mm. The procedure: as §1, §2, §3
Assay [9] concerns Acinetobacter baumanii UPP4 56. The assay is described as follows: Thick cloth growth inhibition test (Example 6). To be noted: commercial disc 30 μg Km. The procedure: as §1, §2, §3
The subject of assay [10] is Streptococcus pneumoniae ATCC14325. The assay is described as follows: Thick cloth growth inhibition test (Example 6). To be noted: commercial disc 30 μg Km; in mm. The procedure: as §1, §2, §3
Assay [11] deals with Streptococcus pyogenes ATCC2367. The assay is described as follows: Thick cloth growth inhibition test (Example 6). The settings on record: commercial disc 30 μg Km; in mm. The procedure:
as §1, §2, §3

Assay [12] deals with Citrobacter freundii ISP1949/99. Nature of the assay: Thick cloth growth inhibition test (Example 6). The settings on record: commercial disc 30 μg Km. How it is done:
as §1, §2, §3

In assay [13] the test system is Escherichia coli ATCC25922. The assay is described as follows: Thick cloth growth inhibition test (Example 6). To be noted: commercial disc 30 μg Km; in mm. The procedure: as §1, §2, §3
For assay [14], the system named is Enterococcus faecalis ATCC29212. The assay is described as follows: Thick cloth growth inhibition test (Example 6). To be noted: commercial disc 30 μg Km; in mm. How it is done:
as §1, §2, §3

Assay [15] relates to Staphylococcus epidermidis ATCC2S923. The assay is described as follows: Thick cloth growth inhibition test (Example 6). To be noted: commercial disc 30 μg Km; in mm. How it is done:
as §1, §2, §3

The test system of assay [16] is Pseudomonas aeruginosa PAOI. The assay is described as follows: Disc growth inhibition halo test (Example 2). The settings on record: commercial disc 30 μg Km.
Assay [17] has as its system Streptococcus pneumoniae ATCC14325. The assay is described as follows: Disc growth inhibition halo test (Example 2). To be noted: commercial disc 30 μg Km.
Assay [18] relates to Staphylococcus aureus ATCC25923. The assay is described as follows: Disc growth inhibition halo test (Example 2). The settings on record: commercial disc 30 μg Km.
Assay [19] has as its system Streptococcus pyogenes ATCC2367. The assay is described as follows: Disc growth inhibition halo test (Example 2). To be noted: commercial disc 30 μg Km.
For assay [20], the system named is Staphylococcus aureus ATCC25923. The assay is described as follows: Inhibition halos of fabrics after washing (Example 7). To be noted: commercial disc 30 μg Km; in mm. The procedure:
(§4) This example established qualitatively the antibacterial activity of matrixes in thin fabric (Fabric 1) and thick fabric (Fabric 2) embedded with the product, following the procedure described herein, and after subjected to washing. In order to do this, there were taken pieces of 2×2 cm from both fabrics, cut and washed for 2 hours with stirring using commercial laundry detergent. Subsequently, the washed fabric pieces which have the new product are dried in an oven at 40° C. for 3 hours and placed on the background lawn. In order to generate the background lawn, it was prepared a bacterial culture of 16 hours, with the strain of interest, it was performed a 1/30 dilution of the culture with fresh medium and incubated under stirring at 37° C. until reaching the exponential growth phase (D0600 nm 0.4-0.5). It was taken an aliquot of 100 μL of the culture in exponential phase, and deposited in 4 mL of Mueller-Hinton soft agar at 0.8% (previously melted and stabilized at 50° C.). The mature was deposited on a Petri dish with 20 mL of Mueller-Hinton agar base. […]
(§5) Experiments were performed in triplicate and in three independent events. From the treated plates, it was measured the zone of inhibition generated by each control and fabrics embedded with the proposed compound, which is summarized in Table 7.

Assay [21] has as its system Escherichia coli ATCC25922. Described as above. To be noted: commercial disc 30 μg Km; in mm. The procedure:
as §4, §5

In assay [22] the test system is Citrobacter freundii ISP1949/99. The assay is described as follows: Disc growth inhibition halo test (Example 2). The settings on record: commercial disc 30 μg Km.
Assay [23] relates to Enterococcus faecalis ATCC29212. The assay is described as follows: Disc growth inhibition halo test (Example 2). To be noted: commercial disc 30 μg Km.
The subject of assay [24] is Staphylococcus epidermidis ATCC25923. Nature of the assay: Disc growth inhibition halo test (Example 2). To be noted: commercial disc 30 μg Km.

This is an account of results in patent US9924714B2, “Impregnatable matrix of plant, animal or synthetic origin or mixtures of same, containing a uniformly distributed antimicrobial compound, method for impregnating said matrix with a compound, and use thereof in the production of antimicrobial elements” (COMPAÑIA MINERA SAN GERONIMO, priority 2013, dated 2018).

Where “and” joins values, the source holds several entries; their conditions need not be identical. Equal values may be shown once.

Take `NC[C@H]1O[C@H](O[C@H]2[C@H](O)[C@@H](O[C@H]3O[C@H](CO)[C@@H](O)[C@H](N)[C@H]3O)[C@H](N)C[C@@H]2N)[C@H](O)[C@@H](O)[C@@H]1O` [Km, Kanamycin]: the Growth inhibition zone was 12.5 ± 1.2 mm and 9 ± 0.7 mm and 11.0 mm in assay [1]; 14 + 0.5 mm and 15 ± 0.4 mm and 16 ± 0.4 mm and 19.0 ± 0.7 mm in [2]; 18 ± 1.8 mm and 15 ± 0.2 mm and 18 ± 0.7 mm and 20.0 ± 0.7 mm in assay [3]; 18.0 ± 1.0 in assay [4]; 12.0 ± 0.5 in assay [5]; 11.0 ± 0.8 in assay [6]. Moreover, the Growth inhibition zone came to 7.0 ± 0.5 in assay [7]; 18.0 ± 0.5 in assay [8]; 5 mm in assay [9]; 10.0 ± 0.2 in assay [10]; 6.0 ± 1.0 in assay [11]; 17.0 ± 0.3 in [12]. Also, the Growth inhibition zone was 19.0 ± 0.5 in [13]; 14.0 ± 1.0 in assay [14]; 24.0 ± 1.0 in assay [15]; 7 ± 1.0 mm and 9 ± 0.7 mm and 7 + 0.7 mm and 7.0 ± 1.4 mm in assay [16]; 15 ± 0.8 mm and 12.5 ± 1.2 mm and 11 ± 1 mm and 11.5 ± 0.8 mm in [17]; 21 ± 2 mm and 20 ± 0.8 mm and 15 ± 0.5 mm and 19.0 mm in [18]. The Growth inhibition zone is 5 mm and 5.0 mm in assay [19]; 18.0 ± 1.4 in assay [20]; 20.6 ± 0.6 in [21]; 19 ± 0.3 mm and 12 ± 0.5 mm and 15 ± 0.5 mm and 19.0 ± 0.2 mm in assay [22]; 10 mm and 15 + 0.6 mm and 15 ± 0.6 mm and 10.5 ± 0.2 mm in assay [23]; 16 + 0.5 mm and 14 + 0.7 mm and 18 ± 0.7 mm and 18.5 ± 3.5 mm in assay [24].
